Data: patent US20080200448A1, “New Pyridine Analogues VIII 518” (ASTRAZENECA AB, priority 2007, published 2008)

Target: T1, P2Y12 receptor (Homo sapiens, UniProt Q9H244)
T1 construct: expressed in transfected cells; host or cells: CHO cells (membrane preparation)
Test: Functional inhibition of 2-Me-S-ADP induced P2Y12 signalling (35S-GTPγS binding, cell membranes)
Type: biochemical
Settings: 35S-GTPγS assay, membranes, EC80 concentration of 2-methyl-thio-adenosine diphosphate, 30° C. for 45 min; read-out: GTPγS (IC50 μM)
Experimental: Functional inhibition of- the P2Y12 receptor can be measured by in vitro assays using cell membranes from P2Y12 transfected CHO-cells, the methodology is indicated below.
Functional inhibition of 2-Me-S-ADP induced P2Y12 signalling: 5 μg of membranes were diluted in 200 μl of 200 mM NaCl, 1 mM MgCl2, 50 mM HEPES (pH 7.4), 0.01% BSA, 30 μg/ml saponin and 10 μM GDP. To this was added an EC80 concentration of agonist (2-methyl-thio-adenosine diphosphate), the required concentration of test compound and 0.1 μCi ^35S-GTPγS. The reaction was allowed to proceed at 30° C. for 45 min. Samples were then transferred on to GF/B filters using a cell harvester and washed with wash buffer (50 mM Tris (pH 7.4), 5 mM MgCl2, 50 mM NaCl). Filters were then covered with scintilant and counted for the amount of ^35S-GTPγS retained by the filter. Maximum activity was that determined in the presence of the agonist and minimum activity in the absence of the agonist following subtraction of the value determined for non-specific activity. The effect of compounds at various concentrations was plotted according to the equation
y=A+((B−A)/(1+((C/x)̂D)))
and IC50 estimated where A is the bottom plateau of the curve i.e. the final minimum y value B is the top of the plateau of the curve i.e. the final maximum y value C is the x value at the middle of the curve. This represents the log EC50 value when A+B=100 D is the slope factor. x is the original known x values. Y is the original known y values.

T1 sequence (Q9H244 whole entry): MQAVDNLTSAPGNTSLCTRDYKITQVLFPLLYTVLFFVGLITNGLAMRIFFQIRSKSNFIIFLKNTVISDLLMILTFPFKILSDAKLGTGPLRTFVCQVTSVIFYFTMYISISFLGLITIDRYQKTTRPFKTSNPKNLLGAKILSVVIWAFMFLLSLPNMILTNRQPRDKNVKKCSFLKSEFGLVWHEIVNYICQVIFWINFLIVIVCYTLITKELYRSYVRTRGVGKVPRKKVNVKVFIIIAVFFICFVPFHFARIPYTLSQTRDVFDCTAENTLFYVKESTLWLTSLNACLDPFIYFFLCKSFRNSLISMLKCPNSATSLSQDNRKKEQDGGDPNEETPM

| SMILES | IC50 [µM] |
| --- | --- |
| CCOC(=O)c1cc(C#N)c(N2CC(C(=O)NS(=O)(=O)Cc3ccccc3)C2)nc1COC(=O)CO [Example 14, Ethyl 6-{3-[(benzylsulfonyl)carbamoyl]azetidin-1-yl}-5-cyano-2-[(glycoloyloxy)methyl]nicotinate] | 0.044 |
| CCOC(=O)c1cc(C#N)c(N2CC(C(=O)NS(=O)(=O)Cc3ccccc3)C2)nc1CSCCNC(C)=O [Example 32, Ethyl 2-{[(2-acetamidoethyl)thio]methyl}-6-{3-[(benzylsulfonyl)carbamoyl]azetidin-1-yl}-5-cyanonicotinate] | 0.081 |
| CCOC(=O)c1cc(C#N)c(N2CCC(C(=O)NS(=O)(=O)Cc3ccccc3)CC2)nc1SCCO [Example 19, Ethyl 6-{4-[(benzylsulfonyl)carbamoyl]piperidin-1-yl}-5-cyano-2-[(2-hydroxyethyl)thio]nicotinate] | 0.016 |
| CC(C)OC(=O)c1cc(C#N)c(N2CCC(C(=O)NS(=O)(=O)Cc3ccc(F)cc3F)CC2)nc1CN1CCCC1=O [Example 46, Isopropyl 5-cyano-6-(4-{[(2,4-difluorobenzyl)sulfonyl]carbamoyl}piperidin-1-yl)-2-[(2-oxopyrrolidin-1-yl)methyl]nicotinate] | 0.021 |
| CCOC(=O)c1cc(C#N)c(N2CCC(C(=O)NS(=O)(=O)Cc3ccccc3)CC2)nc1CN1C(=O)CCC1=O [Example 15, Ethyl 6-{4-[(benzylsulfonyl)carbamoyl]piperidin-1-yl}-5-cyano-2-[(2,5-dioxopyrrolidin-1-yl)methyl]nicotinate] | 0.017 |
| CCOC(=O)c1cc(C#N)c(N2CCC(C(=O)NS(=O)(=O)Cc3ccc(C)cc3)CC2)nc1CN1CCCCC1=O [Example 63, Ethyl 5-cyano-6-(4-{[(4-methylbenzyl)sulfonyl]carbamoyl}piperidin-1-yl)-2-[(2-oxopiperidin-1-yl)methyl]nicotinate] | 0.014 |
| CCOC(=O)c1cc(C#N)c(N2CCC(C(=O)NS(=O)(=O)Cc3ccccc3)CC2)nc1SCCNC(C)=O [Example 21, Ethyl 2-[(2-acetamidoethyl)thio]-6-{4-[(benzylsulfonyl)carbamoyl]piperidin-1-yl}-5-cyanonicotinate] | 0.01 |
| CCOC(=O)c1cc(C#N)c(N2CCC(C(=O)NS(=O)(=O)N(C)c3ccccc3)CC2)nc1CN1CCCCC1=O [Example 71, Ethyl 5-cyano-6-[4-({[methyl(phenyl)amino]sulfonyl}carbamoyl)piperidin-1-yl]-2-[(2-oxopiperidin-1-yl)methyl]nicotinate] | 0.036 |

Other lines, results leading:

| IC50 [µM] | SMILES |
| --- | --- |
| 1.22 | CCSC(=O)c1cc(C#N)c(N2CCC(C(=O)NS(=O)(=O)CC3CCCC3)CC2)nc1CN1CCCC1=O [Example 97, S-Ethyl 5-cyano-6-(4-{[(cyclopentylmethyl)sulfonyl]carbamoyl}piperidin-1-yl)-2-[(2-oxopyrrolidin-1-yl)methyl]pyridine-3-carbothioate] |
| 0.066 | CCOC(=O)CCCc1nc(N2CCC(C(=O)NS(=O)(=O)Cc3ccccc3)CC2)c(C#N)cc1C(=O)OCC [Example 106, Ethyl 6-{4-[(benzylsulfonyl)carbamoyl]piperidin-1-yl}-5-cyano-2-(4-ethoxy-4-oxobutyl)nicotinate] |
| 0.019 | CCOC(=O)c1cc(C#N)c(N2CC(C(=O)NS(=O)(=O)Cc3ccccc3)C2)nc1CN1CCCC1=O [Example 90, Ethyl 6-{3-[(benzylsulfonyl)carbamoyl]azetidin-1-yl}-5-cyano-2-[(2-oxopyrrolidin-1-yl)methyl]nicotinate] |
| 0.057 | CCOC(=O)c1cc(C#N)c(N2CCC(C(=O)NS(=O)(=O)Cc3ccccc3)CC2)nc1CSCC(=O)N(C)C [Example 123, Ethyl 6-{4-[(benzylsulfonyl)carbamoyl]piperidin-1-yl}-5-cyano-2-({[2-(dimethylamino)-2-oxoethyl]thio}methyl)nicotinate] |
| 0.178 | CC(C)OC(=O)c1cc(Cl)c(N2CCC(C(=O)NS(=O)(=O)Cc3ccccc3)CC2)nc1CN1CCCC1=O [Example 96, Isopropyl 6-{4-[(benzylsulfonyl)carbamoyl]piperidin-1-yl}-5-chloro-2-[(2-oxopyrrolidin-1-yl)methyl]nicotinate] |
